Like-named read-outs stand apart in the source and are kept apart here.
Experiments:
[1] = target: full-length human PRMT1 isoform 1 (GST-tagged) (Homo sapiens, UniProt Q99873); test: PRMT1 Biochemical Assay (3H-SAM Flashplate, peptide substrate)
From the text: (§1) General Materials. S-adenosylmethionine (SAM), S-adenosylhomocysteine (SAH), bicine, Tween20, dimethylsulfoxide (DMSO), bovine skin gelatin (BSG), and Tris(2-carboxyethyl)phosphine hydrochloride solution (TCEP) were purchased from Sigma-Aldrich at the highest level of purity possible. ^3H-SAM was purchase from American Radiolabeled Chemicals with a specific activity of 80 Ci/mmol. 384-well streptavidin Flashplates were purchased from PerkinElmer.
Protein Expression. Recombinant baculovirus were generated according to Bac-to-Bac kit instructions (Life Technologies). […] Infections were carried out at 27° C. for 48 hours, harvested by centrifugation, and stored at −80° C. for purification.
Protein Purification. […] GST-tagged PRMT1 was eluted with 50 mM Tris, 2 mM glutathione, pH 7.8, dialysed in buffer A and concentrated to 1 mg/mL.
General Procedure for PRMT1 Enzyme Assays on Peptide Substrates. The assays were all performed in a buffer consisting of 20 mM Bicine (pH=7.6), 1 mM TCEP, 0.005% BSG, and 0.002% Tween 20, prepared on the day of use. […] DMSO (1 ul) was added to Columns 11, 12, 23, 24, rows A-H for the maximum signal control and 1 ul of SAH, a known product and inhibitor of PRMT1, was added to columns 11, 12, 23, 24, rows I-P for the minimum signal control. A cocktail (40 ul) containing the PRMT1 enzyme was added by Multidrop Combi (Thermo-Fisher). The compounds were allowed to incubate with PRMT1 for 30 min at room temperature, then a cocktail (10 ul) containing SAM and peptide was added to initiate the reaction (final volume=51 ul). […] The assays were stopped by the addition of non-radiolabeled SAM (10 ul) to a final concentration of 300 uM, which dilutes the ^3H-SAM to a level where its incorporation into the peptide substrate is no longer detectable. 50 ul of the reaction in the 384-well polypropylene plate was then transferred to a 384-well Flashplate and the biotinylated peptides were allowed to bind to the streptavidin surface for at least 1 hour before being washed once with 0.1% Tween20 in a Biotek ELx405 plate washer. The plates were then read in a PerkinElmer TopCount plate reader to measure the quantity of ^3H-labeled peptide bound to the Flashplate surface, measured as disintegrations per minute (dpm) or alternatively, referred to as counts per minute (cpm).
Where dpm=disintegrations per minute, cmpd=signal in assay well, and min and max are the respective minimum and maximum signal controls.
Where top and bottom are the normally allowed to float, but may be fixed at 100 or 0 respectively in a 3-parameter fit. The Hill Coefficient normally allowed to float but may also be fixed at 1 in a 3-parameter fit. Y is the % inhibition and X is the compound concentration.

[2] = target: full-length human PRMT6 (Flag- and His-tagged) (Homo sapiens, UniProt Q96LA8); test: PRMT6 Biochemical Assay (3H-SAM Flashplate, peptide substrate); settings: read-out: Biochemical IC50 PRMT6
From the text: as §1, with “(BSG), sodium butyrate” for “(BSG),”
Substrates. Peptide representative of human histone H4 residues 36-50 was synthesized with an N-terminal linker-affinity tag motif and a C-terminal amide cap by 21st Century Biochemicals. The peptide was purified by high-performance liquid chromatography (HPLC) to greater than 95% purity and confirmed by liquid chromatography mass spectrometry (LC-MS). The sequence was Biot-Ahx-[…]-amide and contained a monomethylated lysine at position 44 (SEQ ID NO.:5).
Molecular Biology: Full-length human PRMT6 (NM_018137.2) transcript clone was amplified from an HEK 293 cDNA library, incorporating a flanking 5′ sequence encoding a FLAG tag ([…]) (SEQ ID NO.:6) fused directly to Ser 2 of PRMT6 and a 3′ sequence encoding a hexa His sequence (HHHHHH) (SEQ ID NO.:17) fused directly to Asp 375. The amplified gene was subcloned into pFastBacMam (Viva Biotech).
Protein Expression. Recombinant baculovirus were generated according to Bac-to-Bac kit instructions (Life Technologies). […] Infections were carried out at 37° C. for 48 hours, harvested by centrifugation, and stored at −80° C. for purification.
Protein Purification. […] Column was washed with 20 mM imidazole in the same buffer and Flag-PRMT6-His was eluted with 150 mM imidazole. Pooled fractions were dialysed against buffer N^1-A and further purified by anti-flag M2 affinity chromatography. Flag-PRMT6-His was eluted with 200 ug/ml FLAG peptide in the same buffer. Pooled fractions were dialysed in 20 mM Tris, 150 mM NaCl, 10% glycerol and 5 mM β-mercaptoethanol, pH 7.8. The purity of recovered protein was 95%.
General Procedure for PRMT6 Enzyme Assays on Peptide Substrates. The assays were all performed in a buffer consisting of 20 mM Bicine (pH=7.6), 1 mM TCEP, 0.005% BSG, and 0.002% Tween 20, prepared on the day of use. Compounds in 100% DMSO (1 ul) were spotted into a polypropylene 384-well V-bottom plates (Greiner) using a Platemate Plus outfitted with a 384-channel head (Thermo Scientific). DMSO (1 ul) was added to Columns 11, 12, 23, 24, rows A-H for the maximum signal control and 1 ul of SAH, a known product and inhibitor of PRMT6, was added to columns 11, 12, 23, 24, rows I-P for the minimum signal control. A cocktail (40 ul) containing the PRMT6 enzyme was added by Multidrop Combi (Thermo-Fisher). The compounds were allowed to incubate with PRMT6 for 30 min at room temperature, then a cocktail (10 ul) containing SAM and peptide was added to initiate the reaction (final volume=51 ul). The final concentrations of the components were as follows: PRMT6 was 1 nM, ^3H-SAM was 200 nM, non-radiolabeled SAM was 250 nM, peptide was 75 nM, SAH in the minimum signal control wells was 1 mM, and the DMSO concentration was 2%. The assays were stopped by the addition of non-radiolabeled SAM (10 ul) to a final concentration of 400 uM, which dilutes the ^3H-SAM to a level where its incorporation into the peptide substrate is no longer detectable. 50 ul of the reaction in the 384-well polypropylene plate was then transferred to a 384-well Flashplate and the biotinylated peptides were allowed to bind to the streptavidin surface for at least 1 hour before being washed once with 0.1% Tween20 in a Biotek ELx405 plate washer. The plates were then read in a PerkinElmer TopCount plate reader to measure the quantity of ^3H-labeled peptide bound to the Flashplate surface, measured as disintegrations per minute (dpm) or alternatively, referred to as counts per minute (cpm). […]

[3] = single experiment or average of multiple experiments

Sequence of full-length human PRMT1 isoform 1 (GST-tagged) (Q99873 with tags, fused parts or gaps): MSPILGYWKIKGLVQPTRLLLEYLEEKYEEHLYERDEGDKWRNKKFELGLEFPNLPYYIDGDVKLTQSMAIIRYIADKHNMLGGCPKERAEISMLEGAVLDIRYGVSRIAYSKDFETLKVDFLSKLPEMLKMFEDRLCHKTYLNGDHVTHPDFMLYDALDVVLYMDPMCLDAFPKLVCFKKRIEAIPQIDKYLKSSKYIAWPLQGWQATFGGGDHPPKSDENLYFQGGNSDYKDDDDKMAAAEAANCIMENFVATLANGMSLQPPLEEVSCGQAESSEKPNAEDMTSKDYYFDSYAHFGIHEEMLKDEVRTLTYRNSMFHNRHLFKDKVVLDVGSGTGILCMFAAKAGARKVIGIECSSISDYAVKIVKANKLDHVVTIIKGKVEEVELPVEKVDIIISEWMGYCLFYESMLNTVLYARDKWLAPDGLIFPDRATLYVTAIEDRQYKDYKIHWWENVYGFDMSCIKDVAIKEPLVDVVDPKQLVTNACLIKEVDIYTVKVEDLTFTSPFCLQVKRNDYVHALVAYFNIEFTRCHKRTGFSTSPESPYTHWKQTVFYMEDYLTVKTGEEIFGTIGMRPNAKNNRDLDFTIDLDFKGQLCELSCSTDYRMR
Sequence of full-length human PRMT6 (Flag- and His-tagged) (Q96LA8 with tags, fused parts or gaps): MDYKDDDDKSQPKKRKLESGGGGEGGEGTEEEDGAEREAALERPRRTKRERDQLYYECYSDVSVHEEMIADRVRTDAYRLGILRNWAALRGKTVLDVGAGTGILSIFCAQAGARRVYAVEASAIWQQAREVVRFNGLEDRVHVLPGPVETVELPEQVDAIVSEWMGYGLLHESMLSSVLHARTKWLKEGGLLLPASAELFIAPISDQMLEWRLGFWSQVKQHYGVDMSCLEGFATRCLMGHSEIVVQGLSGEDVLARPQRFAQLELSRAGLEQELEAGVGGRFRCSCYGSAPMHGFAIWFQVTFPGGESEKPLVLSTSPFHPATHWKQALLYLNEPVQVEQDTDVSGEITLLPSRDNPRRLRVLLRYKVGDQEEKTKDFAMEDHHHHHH

| IC50 [1] [nM] | IC50 [1, 3] [nM] | IC50 [2] [nM] | IC50 [2, 3] [nM] | Structure (SMILES) |
| --- | --- | --- | --- | --- |
| < 100 | 15.2 | < 100 | 97.7 | CNCCN(C)Cc1c[nH]nc1C1CCC2(CC1)OC(C)CC(C)O2 (centres unmarked) [Compound 121] |
| < 100 | 6.4 | < 100 | 26.2 | CNCCN(C)Cc1c[nH]nc1[C@H]1CC[C@]2(CCN(CC(C)C)C2=O)CC1 [Compound 124] |
| < 100 | 23.6 | < 100 | 29.7 | CNCCN(C)Cc1c[nH]nc1[C@H]1CC[C@@]2(CCN(CC(C)C)C2=O)CC1 [Compound 129] |
| < 100 | 3.4 | < 100 | 4.2 | CNCCN(C)Cc1c[nH]nc1C1CCC2(CC1)CCC(F)(F)CC2 [Compound 130] |
| < 100 | 7.3 | < 100 | 23.3 | CNCCN(C)Cc1c[nH]nc1C1CCC2(CCCCO2)CC1 (centres unmarked) [Compound 137] |
| < 100 | 10.7 | < 100 | 23 | CNCCN(C)Cc1c[nH]nc1[C@H]1CC[C@@]2(CCOC2)CC1 [Compound 141] |
| < 100 | 7.2 | < 100 | 19.9 | CNCCN(C)Cc1c[nH]nc1[C@H]1CC[C@]2(CCOC2)CC1 [Compound 142] |
| < 100 | 10.6 | < 100 | 22 | CNCCN(C)Cc1c[nH]nc1[C@H]1CC[C@@]2(CCCO2)CC1 [Compound 143] |
| < 100 | 21.6 | < 100 | 35.6 | CNCCN(C)Cc1c[nH]nc1C1CCC2(CC1)CC2 [Compound 144] |
| < 100 | 26.2 | < 100 | 38 | CNCCN(C)Cc1c[nH]nc1C1CCC2(CC1)CN(CC(C)C)C(=O)N2C (centres unmarked) [Compound 145] |
| < 100 | 18.3 | < 100 | 32.7 | CNCCN(C)Cc1c[nH]nc1C1CCC2(CC1)CNC(=O)C2 (centres unmarked) [Compound 147] |
| < 100 | 4.8 | < 100 | 8.1 | CC[C@H]1CC[C@H](c2n[nH]cc2CN(C)CCNC)CC1 [Compound 148] |
| < 100 | 4.5 | < 100 | 7.2 | CNCCN(C)Cc1c[nH]nc1C1CCC(C)CC1 (centres unmarked) [Compound 149] |
| < 100 | 44 | < 100 | 55.6 | CNCCN(C)Cc1c[nH]nc1C1CCC2(CC1)OCC(C(C)C)CO2 (centres unmarked) [Compound 150] |
| < 100 | 36.9 | < 100 | 47.7 | CNCCN(C)Cc1c[nH]nc1C1CCC2(CC1)CN(C)C(=O)N2CC(C)C (centres unmarked) [Compound 151] |
| < 100 | 14.2 | < 100 | 35.2 | CNCCN(C)Cc1c[nH]nc1C1CCC2(CC1)CCN(C)C2=O (centres unmarked) [Compound 152] |

More lines, now with the values behind:

| Structure (SMILES) | IC50 [1] [nM] | IC50 [1, 3] [nM] | IC50 [2] [nM] | IC50 [2, 3] [nM] |
| --- | --- | --- | --- | --- |
| CNCCN(C)Cc1c[nH]nc1C1CC(OCC(C)C)CC(OCC(C)C)C1 (centres unmarked) [Compound 122] | 101 to 1000 | 421 | > 10000 | > 10000 |
| CNCCN(C)Cc1c[nH]nc1[C@H]1CC[C@]2(CCN(Cc3ccc(F)cc3)C2=O)CC1 [Compound 123] | < 100 | 8.8 | < 100 | 18 |
| CNCCN(C)Cc1c[nH]nc1[C@H]1CC[C@@]2(CCN(Cc3ccc(F)cc3)C2=O)CC1 [Compound 125] | < 100 | 5.3 | < 100 | 13.1 |
| CNCCN(C)Cc1c[nH]nc1[C@H]1CC[C@@]2(CCN(Cc3cc(F)cc(F)c3)C2=O)CC1 [Compound 126] | < 100 | 4 | < 100 | 9.4 |
| CNCCN(C)Cc1c[nH]nc1[C@H]1CC[C@@]2(CCN(Cc3ccccc3)C2=O)CC1 [Compound 127] | < 100 | 16.5 | < 100 | 22.3 |
| CNCCN(C)Cc1c[nH]nc1[C@H]1CC[C@]2(CCN(Cc3ccccc3)C2=O)CC1 [Compound 128] | < 100 | 5.2 | < 100 | 13.1 |
| CCCOC1CC(OCCC)CC(c2n[nH]cc2CN(C)CCNC)C1 (centres unmarked) [Compound 131] | 101 to 1000 | 270 | > 10000 | > 10000 |
| CCOC1CC(OCC)CC(c2n[nH]cc2CN(C)CCNC)C1 (centres unmarked) [Compound 132] | 101 to 1000 | 626 | 3010 to 10000 | 5500 |
| CNCCN(C)Cc1c[nH]nc1C1CCC(OCCOc2ccccc2)CC1 (centres unmarked) [Compound 136] | < 100 | 2.9 | < 100 | 7.2 |
| CNCCN(C)Cc1c[nH]nc1C1CC(COC)CC(COC)C1 (centres unmarked) [Compound 138] | 101 to 1000 | 349 | 1010 to 3000 | 1210 |
| CNCCN(C)Cc1c[nH]nc1[C@H]1CC[C@H](OC2CCCCC2)CC1 [Compound 139] | < 100 | 30.5 | < 100 | 22.6 |
| CNCCN(C)Cc1c[nH]nc1[C@H]1CC[C@@H](OC2CCCCC2)CC1 [Compound 140] | < 100 | 15.6 | < 100 | 24 |
| CNCCN(C)Cc1c[nH]nc1C1CCC2(CC1)CC(=O)N(Cc1ccc(OC)cc1)C2 (centres unmarked) [Compound 146] | < 100 | 14 | < 100 | 21.7 |
